Laboratory results taken from patent US8323925B2, “Aβ-binding protein and its peptide derivatives and uses thereof” (priority 2005, dated 2012).
No end group written: not given here. His‑tag = His-Tag conjugated at the N-terminus

Tests used:
AB1-42 [1] = molecular target: T1, AB1-42 (Homo sapiens, UniProt P05067); assay: Aβ binding of FC5-conjugated peptide
Source text: (§1) These fusion proteins can be used not only to specifically deliver ABPs to the brain but also inside brain cells. This is particularly important since intracellular Aβ is believed to play a major role in synaptic dysfunction and neurodegeneration well before the accumulation of insoluble Aβ in senile plaques^6,7. Such pseudo vaccines would be administered, for example, subcutaneously, and further ingredients beyond a pharmacologically acceptable carrier would not be necessary. […] Recombinant Aβ binding peptide P4-5 (rABP, His-tag-[…]) was conjugated to BBB-permeable single-domain antibody FC5 (FIG. 8A). The FC5 conjugated peptide (FC5/ABP) bound AB1-42 equally well as the synthetic (sABP) or non-conjugated peptide (rABP) (FIG. 8B).

[2] = type: in vitro ADME
Source text: as §1

[3] = Stability in serum containing medium; type: in vitro ADME; settings: for stability in serum containing medium: up to 48 hrs
Description: (§2) All peptides P4, P5 and P4-5 are stable in serum containing medium for up to 48 hrs and also in rat blood plasma (FIG. 7). P4 peptide was incubated in culture medium containing 10% fetal calf serum for various time periods at 37° C. and the stability of p4 was tested by Western blot analysis using p4-specific antibody. No loss of P4 was detected over a 24 hour period.

[4] = Stability in rat blood plasma; type: in vitro ADME
Description: as §2

neuroblastoma cells = assay: Toxicity in vitro against cultured neuroblastoma cells; type: cell-based; settings: data not shown
Description: Human neuroblastoma cells, SH-SY5Y were treated with 15 μM Aβ in the presense or absence of Aβ binding peptide p4-5 in serum-free medium for 48 hrs and cell death was assessed by Hoechst stain.

primary cortical neurons = assay: Toxicity in vitro against primary cortical neurons; type: cell-based; settings: data not shown
CD-1 mice = assay: Toxicity in vivo; design: species or system mouse; settings: up to 20 mg/kg body weight
Aβ1-40 = Aβ1-40 (Homo sapiens, UniProt P05067); assay: Aβ-binding of recombinant proteins by dot-blot assay; settings: PK-4-specific antibody (FIG. 1B)
Description: (§3) Aβ-binding of recombinant proteins PK-4 and PK-3 with N-terminus His-tag was determined by dot-blot assay using His-Tag antibody (A) or PK-4-specific antibody (B), and by Biacore analysis (C). β-binding PK-4 is a […] amino acid-long polypeptide that corresponds to sequence 1171-1314, and 1369-1380, of the human pericentriolar material protein-1, PCM-1.

Aβ1-42 = Aβ1-42 (Homo sapiens, UniProt P05067); assay: as above
Description: as §3

Aβ40-1 = assay: Aβ-binding dot-blot assay, reverse peptide; settings: dot-blot (FIG. 1B)
Description: as §3

Aβ42-1 = assay: Aβ-binding dot-blot assay, reverse peptide; settings: dot-blot (FIG. 1B)
Description: as §3

AB1-42 [5] = molecular target: T1, AB1-42; assay: Biacore analysis; type: binding; settings: Biacore (FIG. 1C)
Description: as §3

rat brain PKC = assay: PKC inhibitory activity in vitro; type: biochemical; settings: rat brain PKC (FIG. 5)
Description: Various synthetic peptides derived from PK-4 (see FIG. 2) were tested for PKC inhibitory activity in vitro using rat brain PKC.

Sequence of Aβ1-42 (P05067 672-713 limits assumed): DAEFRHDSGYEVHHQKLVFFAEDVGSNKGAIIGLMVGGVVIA
T1 sequence (P05067 672-713 limits assumed): as above
Sequence of Aβ1-40 (P05067 672-711 limits assumed): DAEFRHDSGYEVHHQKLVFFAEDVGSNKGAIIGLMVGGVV

| Molecule | crossing of BBB in vitro [2] | stability in serum containing medium [3] | stability in rat blood plasma [4] | toxicity in vitro against cultured neuroblastoma cells (neuroblastoma cells) | toxicity in vitro against primary cortical neurons (primary cortical neurons) | apparent toxicity in vivo (CD-1 mice) | further results |
| --- | --- | --- | --- | --- | --- | --- | --- |
| FC5/ABP: Recombinant Aβ binding peptide P4-5 conjugated to BBB-permeable single-domain antibody FC5 ({His‑tag}-MPDPVDPTTVTKTFKTRKASAQASLASKDKTPKSKSKKRNSTQLKSRVKNI; also: conjugated to single-domain antibody FC5) | crossed the barrier |  |  |  |  |  | binding of AB1-42 relative to synthetic or non-conjugated peptide (AB1-42 [1]): equally well |
| FSSMPDPVDPTTVTKTFKTRKASAQASLASKDKTPKSKSK [Peptide P4] |  | stable | stable | no toxicity | no toxicity | none of the peptides, p4, p5, or p4-5 showed any apparent toxicity | loss of peptide in culture medium containing 10% fetal calf serum ([3]; 37° C., over a 24 hour period, Western blot): No loss |
| His-tag-MPDPVDPTTVTKTFKTRKASAQASLASKDKTPKSKSKKRNSTQLKSRVKNI ({His‑tag}-MPDPVDPTTVTKTFKTRKASAQASLASKDKTPKSKSKKRNSTQLKSRVKNI) [rABP] | did not cross the BBB |  |  |  |  |  |  |
| KDKTPKSKSKKRNSTQLKSRVKNITHARRILQQSNRNACN [Peptide P5] |  | stable | stable |  |  | none of the peptides, p4, p5, or p4-5 showed any apparent toxicity |  |
| KTFKTRKASAQASLASKDKTPKSKSKKRNSTQLKSRVKNI [Peptide P4-5] |  | stable | stable | no toxicity | no toxicity | none of the peptides, p4, p5, or p4-5 showed any apparent toxicity |  |
| PK-4: Recombinant 170 amino acid polypeptide (21 kDa), sequence 1171-1314 and 1369-1380 of human pericentriolar material protein-1, PCM-1 (protein) SGKTEYMAFPKPFESSSSIGAEKPRNKKLPEEEVESSRTPWLYEQEGEVEKPFIKTGFSVSVEKSTSSNRKNQLDTNGRRRQFDEESLESFSSMPDPVDPTTVTKTFKTRKASAQASLASKDKTPKSKSKKRNSTQLKSRVKNITHARRILQQSNRNACNEAPETGSDFSMFEA |  |  |  |  |  |  | binding affinity for Aβ1-40 (Aβ1-40): high affinity (nM range); selective binding of Aβ1-42 (Aβ1-42; His-Tag antibody (FIG. 1A)): selectively binds Aβ1-42; binding affinity for Aβ1-42 (Aβ1-42; PK-4-specific antibody (FIG. 1B)): high affinity (nM range); binding of reverse peptide Aβ40-1 (Aβ40-1): does not bind; binding of reverse peptide Aβ42-1 (Aβ42-1): does not bind; binding of AB1-42 (AB1-42 [5]): High affinity-binding; PKC inhibitory activity (rat brain PKC): inhibits |
